In brackets after ≈: the same amount, converted by molar mass.
Legend:
Type in all cases: functional
[1] = tested on: Aggregatibacter actinomycetemcomitans; experiment: Antibacterial activity against Aggregatibacter actinomycetemcomitans ATCC 29524 assessed as zone of inhibition at 10 mg/ml after 3 to 7 days by cup diffusion method; conditions: read-out: IZ
[2] = tested on: Aggregatibacter actinomycetemcomitans; experiment: Antibacterial activity against Aggregatibacter actinomycetemcomitans ATCC 29524 after 3 to 7 days by cup diffusion method
[3] = tested on: Escherichia coli; experiment: Antibacterial activity against Escherichia coli after 3 to 7 days by cup diffusion method
[4] = tested on: Escherichia coli; experiment: Antibacterial activity against Escherichia coli assessed as zone of inhibition at 10 mg/ml after 3 to 7 days by cup diffusion method; conditions: read-out: IZ
[5] = tested on: Bacillus subtilis; experiment: Antibacterial activity against Bacillus subtilis after 3 to 7 days by cup diffusion method
[6] = tested on: Staphylococcus aureus; experiment: Antibacterial activity against Staphylococcus aureus after 3 to 7 days by cup diffusion method
[7] = tested on: Pseudomonas aeruginosa; experiment: Antibacterial activity against Pseudomonas aeruginosa assessed as zone of inhibition at 10 mg/ml after 3 to 7 days by cup diffusion method; conditions: read-out: IZ
[8] = tested on: Pseudomonas aeruginosa; experiment: Antibacterial activity against Pseudomonas aeruginosa after 3 to 7 days by cup diffusion method
[9] = tested on: Mycolicibacterium phlei; experiment: Antibacterial activity against Mycobacterium phlei clinical isolate after 3 to 7 days by cup diffusion method
[10] = tested on: Bacillus subtilis; experiment: Antibacterial activity against Bacillus subtilis assessed as zone of inhibition at 10 mg/ml after 3 to 7 days by cup diffusion method; conditions: read-out: IZ
[11] = tested on: Mycolicibacterium phlei; experiment: Antibacterial activity against Mycobacterium phlei clinical isolate assessed as zone of inhibition at 10 mg/ml after 3 to 7 days by cup diffusion method; conditions: read-out: IZ
[12] = tested on: Staphylococcus aureus; experiment: Antibacterial activity against Staphylococcus aureus assessed as zone of inhibition at 10 mg/ml after 3 to 7 days by cup diffusion method; conditions: read-out: IZ
[13] = tested on: Staphylococcus aureus; experiment: Antibacterial activity against Staphylococcus aureus
[14] = tested on: Escherichia coli; experiment: Antibacterial activity against Escherichia coli
[15] = Aggregatibacter actinomycetemcomitans, ATCC 29524, read-out: MIC
[16] = Escherichia coli, read-out: MIC
[17] = Bacillus subtilis, read-out: MIC
[18] = Staphylococcus aureus, read-out: MIC
[19] = Pseudomonas aeruginosa, read-out: MIC
[20] = Mycolicibacterium phlei, read-out: MIC

Row | SMILES | MIC [2] | MIC [3] | MIC [5] | MIC [6] | MIC [8] | MIC [9] | MIC [2, 15] | MIC [3, 16] | MIC [5, 17] | MIC [6, 18] | MIC [8, 19] | MIC [9, 20] | zone of inhibition at 10000 µg/mL [1] | zone of inhibition at 10000 µg/mL [4] | zone of inhibition at 10000 µg/mL [7] | zone of inhibition at 10000 µg/mL [10] | zone of inhibition at 10000 µg/mL [11] | zone of inhibition at 10000 µg/mL [12] | MIC [13] | MIC [14]
1 | CCn1cc(-c2nc(/N=C/c3ccc(Cl)cc3Cl)n[nH]2)c(=O)c2ccc(C)nc21 | >=0.031 - 32 ug ml-1 | >=0.031 - 32 ug ml-1 | >=0.031 - 32 ug ml-1 | >=0.031 - 32 ug ml-1 | >=0.031 - 32 ug ml-1 | >=0.031 - 32 ug ml-1 | – | – | – | – | – | – | 20 to 40 mm | 20 to 40 mm | 20 to 40 mm | 20 to 40 mm | 20 to 40 mm | 20 to 40 mm | – | –
2 | CCn1cc(-c2nc(/N=C/c3ccc(Cl)cc3Cl)n[nH]2)c(=O)c2cc(Br)c(C)nc21 | – | – | – | – | – | – | 3.68 to 6.3 µM (≈ 1.86 to 3.19 µg/mL) | 3.68 to 6.3 µM (≈ 1.86 to 3.19 µg/mL) | 3.68 to 6.3 µM (≈ 1.86 to 3.19 µg/mL) | 3.68 to 6.3 µM (≈ 1.86 to 3.19 µg/mL) | 3.68 to 6.3 µM (≈ 1.86 to 3.19 µg/mL) | 3.68 to 6.3 µM (≈ 1.86 to 3.19 µg/mL) | 20 to 40 mm | 20 to 40 mm | 20 to 40 mm | 20 to 40 mm | 20 to 40 mm | 20 to 40 mm | – | –
3 | CCn1cc(-c2nc(/N=C/c3ccc(Br)cc3)n[nH]2)c(=O)c2ccc(C)nc21 | >=0.031 - 32 ug ml-1 | >=0.031 - 32 ug ml-1 | >=0.031 - 32 ug ml-1 | >=0.031 - 32 ug ml-1 | >=0.031 - 32 ug ml-1 | >=0.031 - 32 ug ml-1 | – | – | – | – | – | – | 20 to 40 mm | 20 to 40 mm | 20 to 40 mm | 20 to 40 mm | 20 to 40 mm | 20 to 40 mm | – | –
4 | CN(C)Cn1nc2c(F)cc3c(=O)c(C(=O)O)cn(C4CC4)c3n2c1=S | – | – | – | – | – | – | – | – | – | – | – | – | – | – | – | – | – | – | 4 to 32 µg/mL (≈ 10.6 to 84.8 µM) | 4 to 32 µg/mL (≈ 10.6 to 84.8 µM)
5 | O=C(O)c1cn(C2CC2)c2c(cc(F)c3nn(CN4CCCC4)c(=S)n32)c1=O | – | – | – | – | – | – | – | – | – | – | – | – | – | – | – | – | – | – | 0.125 to 8 µg/mL (≈ 0.31 to 19.8 µM) | 0.125 to 8 µg/mL (≈ 0.31 to 19.8 µM)
6 | CCn1cc(-c2nc(/N=C/c3ccccc3)n[nH]2)c(=O)c2cc(Br)c(C)nc21 | – | – | – | – | – | – | 3.68 to 6.3 µM (≈ 1.61 to 2.75 µg/mL) | 3.68 to 6.3 µM (≈ 1.61 to 2.75 µg/mL) | 3.68 to 6.3 µM (≈ 1.61 to 2.75 µg/mL) | 3.68 to 6.3 µM (≈ 1.61 to 2.75 µg/mL) | 3.68 to 6.3 µM (≈ 1.61 to 2.75 µg/mL) | 3.68 to 6.3 µM (≈ 1.61 to 2.75 µg/mL) | 20 to 40 mm | 20 to 40 mm | 20 to 40 mm | 20 to 40 mm | 20 to 40 mm | 20 to 40 mm | – | –
7 | CCn1cc(-c2nc(NC(=O)c3ccc(OC)cc3)n[nH]2)c(=O)c2cc(Br)c(C)nc21 | – | – | – | – | – | – | 3.68 to 6.3 µM (≈ 1.78 to 3.04 µg/mL) | 3.68 to 6.3 µM (≈ 1.78 to 3.04 µg/mL) | 3.68 to 6.3 µM (≈ 1.78 to 3.04 µg/mL) | 3.68 to 6.3 µM (≈ 1.78 to 3.04 µg/mL) | 3.68 to 6.3 µM (≈ 1.78 to 3.04 µg/mL) | 3.68 to 6.3 µM (≈ 1.78 to 3.04 µg/mL) | 20 to 40 mm | 20 to 40 mm | 20 to 40 mm | 20 to 40 mm | 20 to 40 mm | 20 to 40 mm | – | –

The next lines start with results.

Row | MIC [2] | MIC [3] | MIC [5] | MIC [6] | MIC [8] | MIC [9] | MIC [2, 15] | MIC [3, 16] | MIC [5, 17] | MIC [6, 18] | MIC [8, 19] | MIC [9, 20] | SMILES | zone of inhibition at 10000 µg/mL [1] | zone of inhibition at 10000 µg/mL [4] | zone of inhibition at 10000 µg/mL [7] | zone of inhibition at 10000 µg/mL [10] | zone of inhibition at 10000 µg/mL [11] | zone of inhibition at 10000 µg/mL [12] | MIC [13] | MIC [14]
8 | >=0.031 - 32 ug ml-1 | >=0.031 - 32 ug ml-1 | >=0.031 - 32 ug ml-1 | >=0.031 - 32 ug ml-1 | >=0.031 - 32 ug ml-1 | >=0.031 - 32 ug ml-1 | – | – | – | – | – | – | CCn1cc(-c2nc(/N=C/c3ccccc3)n[nH]2)c(=O)c2ccc(C)nc21 | 20 to 40 mm | 20 to 40 mm | 20 to 40 mm | 20 to 40 mm | 20 to 40 mm | 20 to 40 mm | – | –
9 | – | – | – | – | – | – | 3.68 to 6.3 µM (≈ 1.9 to 3.25 µg/mL) | 3.68 to 6.3 µM (≈ 1.9 to 3.25 µg/mL) | 3.68 to 6.3 µM (≈ 1.9 to 3.25 µg/mL) | 3.68 to 6.3 µM (≈ 1.9 to 3.25 µg/mL) | 3.68 to 6.3 µM (≈ 1.9 to 3.25 µg/mL) | 3.68 to 6.3 µM (≈ 1.9 to 3.25 µg/mL) | CCn1cc(-c2nc(/N=C/c3ccc(Br)cc3)n[nH]2)c(=O)c2cc(Br)c(C)nc21 | 20 to 40 mm | 20 to 40 mm | 20 to 40 mm | 20 to 40 mm | 20 to 40 mm | 20 to 40 mm | – | –
10 | >=0.031 - 32 ug ml-1 | >=0.031 - 32 ug ml-1 | >=0.031 - 32 ug ml-1 | >=0.031 - 32 ug ml-1 | >=0.031 - 32 ug ml-1 | >=0.031 - 32 ug ml-1 | – | – | – | – | – | – | CCn1cc(-c2nc(NC(=O)c3ccc(F)cc3)n[nH]2)c(=O)c2ccc(C)nc21 | 20 to 40 mm | 20 to 40 mm | 20 to 40 mm | 20 to 40 mm | 20 to 40 mm | 20 to 40 mm | – | –
11 | >=0.031 - 32 ug ml-1 | >=0.031 - 32 ug ml-1 | >=0.031 - 32 ug ml-1 | >=0.031 - 32 ug ml-1 | >=0.031 - 32 ug ml-1 | >=0.031 - 32 ug ml-1 | – | – | – | – | – | – | CCn1cc(-c2nc(NC(=O)c3ccc(OC)cc3)n[nH]2)c(=O)c2ccc(C)nc21 | 20 to 40 mm | 20 to 40 mm | 20 to 40 mm | 20 to 40 mm | 20 to 40 mm | 20 to 40 mm | – | –
12 | – | – | – | – | – | – | 3.68 to 6.3 µM (≈ 1.72 to 2.94 µg/mL) | 3.68 to 6.3 µM (≈ 1.72 to 2.94 µg/mL) | 3.68 to 6.3 µM (≈ 1.72 to 2.94 µg/mL) | 3.68 to 6.3 µM (≈ 1.72 to 2.94 µg/mL) | 3.68 to 6.3 µM (≈ 1.72 to 2.94 µg/mL) | 3.68 to 6.3 µM (≈ 1.72 to 2.94 µg/mL) | CCn1cc(-c2nc(/N=C/c3ccc(OC)cc3)n[nH]2)c(=O)c2cc(Br)c(C)nc21 | 20 to 40 mm | 20 to 40 mm | 20 to 40 mm | 20 to 40 mm | 20 to 40 mm | 20 to 40 mm | – | –

From ChEMBL document CHEMBL4346717, “1,2,4-Triazole-quinoline/quinolone hybrids as potential anti-bacterial agents” (Eur J Med Chem, 2019)
